66 molecules from a melting point compilation (Tetko et al.; mined from patent text by program, amines drawn as free bases though some values may be those of a salt) can be followed below.

Bounds are passed on as bounds.

One may read the melting point as the temperature of the solid-liquid transition.

`O=C(COc1ccc([N+](=O)[O-])c(F)c1)NCc1ccccc1`: the melting point is 128 to 130 °C.
With `CCCC(=NOCC)C1=C(O)CC(c2cc3ccccc3o2)CC1=O` (stereo unspecified), the melting point came to 70 °C.
The figure for `CC(=O)N(Cc1ccc(Cl)cc1Cl)c1cncnc1` is 134 to 136 °C; for `COc1ccc(CN2C(=O)CC2COS(C)(=O)=O)c(OC)c1` (stereo unspecified) it is 71 to 72 °C; for `CCCc1c(OCc2ccc(C=CC(=O)OC)cc2)ccc(C(C)=O)c1O` it is 121 to 125 °C.
Under `N=C(N)SCCc1ccc(Cl)c(Cl)c1` stands 135 to 139 °C; under `CC(Oc1ncc(F)c(N)n1)c1ccc(F)cc1` (stereo unspecified), 96 to 98 °C; under `CCN(CC)C(=O)N1CCC(C(O)(c2ccc(Cl)cc2)c2ccc(Cl)cc2)CC1`, 172 to 175 °C.
The figure for `Cc1cc(N2CCNC(=O)N2)cc(Cl)c1SCc1ccc(Cl)cc1` is 165 to 167 °C; for `CN1N=C2C(=Cc3ccccc3)CNCC2C1c1ccccc1` (stereo unspecified) it is 115 to 117 °C.
On to `CCOC(=O)c1ncc2[nH]c3cccc(CN4CCOCC4)c3c2c1COC`, for which the melting point lay in the range of 195 to 196 °C.
For `COC(=O)c1ccc(C=O)c2ncccc12`, the melting point turned out to be 128 °C.
Under `COc1ccc(-c2ccccn2)c(NC(=O)CC(C)N)c1` (stereo unspecified) stands 185 to 188 °C; under `CCOC(=O)C=Cc1c(C)cc(OC)c(C)c1C`, 42 to 44 °C.
Under `Cn1c(=S)n(C)c(=O)n(-c2cc(O)c(Cl)cc2F)c1=O` stands 242 to 246 °C; under `O=C(O)C1C(C=C(Cl)Cl)C12CCCC2` (stereo unspecified), 90 to 105 °C; under `CC(=O)OCC=C(C)C=CC=C(C)C=O`, 71 to 72 °C.
`CCOC(=O)C1=C(C)NC(C)=C(C(=O)OC(C)C)C1c1ccccc1C#N` (stereo unspecified): the melting point was determined as 152 °C.
The figure for `COC(=O)CCC(=O)N(C)c1cccc(OCc2nc3ccccc3s2)c1` is 107 to 110 °C; for `CSCC(C)Nc1nccc(-c2ccnc(Nc3cccc(F)c3)c2)n1` (stereo unspecified) it is 104 to 107 °C; for `CN1C(=O)C(NC(=O)OC(C)(C)C)CC(=O)c2ccccc21` (stereo unspecified) it is 205 to 206 °C.
The figure for `CS(=O)(=O)c1cccc(-n2c(=O)n(Cc3ccncc3)c(=O)c3cccnc32)c1` is 254 to 256 °C.
The figure for `O=C(Nc1ccncn1)c1ccccc1SSc1ccccc1C(=O)Nc1ccncn1` is 234 to 235 °C; for `O=C(O)c1c(C(F)(F)F)ccc(Cl)c1Cl` it is 88 to 89 °C.
For `Nc1ccc(NC(=O)CC(=O)c2ccccc2)cc1[N+](=O)[O-]`, the melting point was 182 to 183 °C.
As for `CCCCC(=O)Nc1cccc2c1C(=O)N(C1CCC(=O)NC1=O)C2=O` (stereo unspecified), the melting point is 178 to 179 °C.
Under `COc1ccccc1NC(=O)Nc1nc(Oc2ccc3ccccc3c2)nc(N(CCC(=O)O)Cc2cccc(Cl)c2)n1` stands 215 to 218 °C; under `O=C(O)CSc1ccc([N+](=O)[O-])cc1C(=O)O`, 216 to 217 °C.
The figure for `O=C(N[C@@H](Cc1c[nH]cn1)C(=O)OCCc1cccs1)C(Cc1cccc2ccccc12)Cc1cccc2ccccc12` is 203 to 206 °C; for `Nc1ccc(C2=NN3C(=O)OCC3Cc3cc4c(cc32)OCO4)cc1` (stereo unspecified) it is 173 to 175 °C; for `CC(=O)Nc1ccc(Sc2c(N)cc(C(=O)O)cc2S(N)(=O)=O)cc1` it is 207 °C.
On to `CC(C)n1cnc2c(Cl)nc(I)nc21`, for which the melting point was determined as 104 °C.
As for `CCn1cc(C(=O)O)c(=O)c2cc(F)c(N3CCOC(CNC=O)C3)c(F)c21` (stereo unspecified), the melting point is 234 to 236 °C.
The figure for `COc1cc(C(=O)N2CCC(CCN3CCC(C(=O)c4nc5ccccc5[nH]4)CC3)(c3ccc(Cl)c(Cl)c3)C2)cc(OC)c1OC` (stereo unspecified) is 130 to 140 °C; for `Cc1nn(-c2cc3nc(S(=O)(=O)Cc4ccccc4Cl)sc3cc2Cl)c(=O)n1C(F)F` it is 196 to 198 °C.
Consider `NC1=CC(=O)CC(c2ccccc2)C1` (stereo unspecified), for which the melting point fell in the range of 190 to 191 °C.
Under `CCOC(=O)C(C(=O)OCC)C(NC(C)=O)[PH](=O)O` (stereo unspecified) stands 113 to 114 °C; under `CC1COc2c(C3CC3)c(F)cc3c(=O)c(C(=O)O)cn1c23` (stereo unspecified), 263 to 265 °C.
Regarding `COc1nc(NC(=O)NS(=O)(=O)c2ccccc2OC(F)F)nc(C2CC2)n1`, the melting point is 121 to 124 °C.
Under `CN1C(=O)C(NC(=O)NC(C)(C)C)N=C(c2ccccc2)c2ccccc21` (stereo unspecified) stands 281 to 282 °C; under `CCOC(=O)c1c(NCCCC(=O)c2ccccc2)c2c(Cl)cc(Cl)cc2n1C(=O)OC(C)(C)C`, 110 to 111 °C.
In turn, `Fc1cc(OCc2ccccc2)cnc1-c1ccccc1` yielded a melting point of 105 to 106 °C.
The figure for `c1cc2ccc3nnsc3c2cn1` is 150 to 153 °C; for `C#CCn1c(=O)c2c(nc(C#Cc3cccc(OC(C)=O)c3)n2C)n(C)c1=O` it is 238 °C; for `CCCOc1ccccc1-c1nc2cc(N)ccc2c(=O)[nH]1` it is 185 °C.
Under `COc1cc2cc(-c3ccc(=O)[nH]n3)sc2cc1OC` stands > 300 °C; under `CCN1CC(C(=O)N2CCOCC2)Cc2cccc(CSc3nc4ccccc4[nH]3)c21` (stereo unspecified), 194 °C.
Under `O=C(O)c1nc(-c2ccc(Cl)cc2Cl)c(-c2ccc(Br)cc2)s1` stands 94 to 95 °C; under `CN(C(=O)On1cccn1)c1ccccc1`, 63 to 67 °C.
The molecule `O=C1CCC(N2C(=O)c3cccc(NC(=O)c4cccc(C(F)(F)F)c4)c3C2=O)C(=O)N1` (stereo unspecified) displayed a melting point of 257 to 259 °C.
The figure for `BrCc1c(Br)cccc1Br` is 77 to 78 °C; for `O=C(Cl)N1Cc2ccccc2Oc2ccc(Cl)cc21` it is 100 to 102 °C; for `CCCCCCCCCCCC(=O)OC1CC(c2ccccc2)NC(c2ccccc2)C1C` (stereo unspecified) it is 56 to 59 °C.
The figure for `Cc1nc2ccc(Cl)cc2nc1Cl` is 194 to 196 °C; for `CCOC(=O)NN=Cc1c[nH]c(C)n1` it is 210 to 212 °C; for `Cc1c(O)c(Cl)cc(Cl)c1C(=O)O` it is 135 °C.
The figure for `CCOCC1OC(n2cnc3c(NCc4cccc(I)c4)ncnc32)C(O)C1O` (stereo unspecified) is 164 to 166 °C; for `CCCCc1nc2cc(Cl)c(Cl)c(C(=O)O)c2n1Cc1ccccc1Cl` it is 240 °C; for `CC/C=C/CONC(=O)c1nc(-c2ccc(Cl)c(OC)c2F)cc(N)c1Cl` it is 145 to 147 °C.
The molecule `CN(C)C(=O)c1ccc(C(N)=O)cc1S(N)(=O)=O` displayed a melting point of 202 to 205 °C.
The figure for `CC(=O)N1CCN=C1Nc1c(Br)cccc1Br` is 182 to 185 °C; for `COc1ccc(C(=O)NCCCCCCCCCNC(=O)c2ccc(OC)cc2)cc1` it is 156 to 157 °C; for `CCOC(=O)c1c(C(F)(F)F)nc2c(C(F)(F)F)cccc2c1O` it is 68 °C.
Under `COC(=O)[C@H]1CC[C@@H](NC(=O)c2cc(-c3ccc(C#N)cc3)nn(C)c2=O)CC1` stands 190 to 192 °C; under `Cc1cccc(N2CCN(CCCCc3ccc(C(=O)CCC(=O)O)cc3)CC2)c1`, 199 to 201 °C; under `CN(Cc1cccc(Cl)c1)c1ccc(C(=O)O)nc1`, 138 to 140 °C.
